For data set [1], the system named is Haemophilus influenzae. Kind of data set: MIC against strains of Haemophilus influenzae. It is filed as cell-based. How it is done:
Erythromycin A was used for this purpose.
After incubation, each disk is read.
In the manner of Example 23, the efficacy of compounds of this invention were tested against numerous strains of Haemophilus influenzae.

The test system of data set [2] is gut contractions (stomach, duodenum, jejunum). The settings on record: dog, in vivo, iv, 4 mg/kg. Here is the method:
Compounds of this invention have been tested for gastrointestinal stimulating activity in a dog model at 4 mg/kg intravenously. Contractions in the gut were recorded with surgically implanted strain gauges. […] Ratios were calculated for the stomach, duodenum and jejunum, and a final arithmetic mean index was calculated and reported in Table 1.

The test system of data set [3] is Staph. aureus. Kind of data set: antimicrobial spectrum, agar dilution MIC. It is filed as cell-based. The settings on record: Staphylococcus aureus, BHI agar, 20-24 hours, read-out: MIC. How it is done: (§1) Twelve petri dishes containing successive aqueous dilutions of the test compound mixed with 10 ml of sterilized Brain Heart Infusion agar (Difco 0418-01-5) are prepared. Each plate is inoculated with 1:100 (or 1:10 for slow-growing strains, primarily Micrococcus and Streptococcus) dilutions of up to 32 different microorganisms, using a Steers replicator block. The inoculated plates are incubated at 35°-37° C. for 20-24 hours. In addition, a control plate, using BHI agar containing no test compound, is prepared and incubated at the beginning and end of each test.
(§2) An additional plate containing a compound having known susceptibility patterns for the organisms being tested and belonging to the same antibiotic class as the test compound is also prepared and incubated as a further control, as well as to provide test-to-test comparability.
(§3) After incubation, each disk is read. The MIC is defined as the lowest concentration of drug yielding no growth, a slight haze, or sparsely isolated colonies on the inoculum spot as compared to the growth control.

Data set [4] concerns Staph. epidermidis. Description: antimicrobial spectrum, agar dilution MIC. The settings on record: Staphylococcus epidermidis, strain 3519; BHI agar, 20-24 hours; read-out: MIC. The data set is classed as cell-based. Here is the method:
as §1, §2, §3
In general terms: In agar dilution, organisms are placed on agar that contains the substance at set levels.

Data set [5] has as its system Strep. faecium. Kind of data set: antimicrobial spectrum, agar dilution MIC. The data set is classed as cell-based. As to conditions: Enterococcus faecium, ATCC8043; strain ATCC 8043; BHI agar, 20-24 hours; read-out: MIC. How it is done:
as §1, §2, §3

Data set [6] relates to Strep. pyogenes. Kind of data set: antimicrobial spectrum, agar dilution MIC. The data set is classed as cell-based. The settings on record: Streptococcus pyogenes, BHI agar, 20-24 hours, read-out: MIC. Here is the method:
as §1, §2, §3

Data set [7] relates to E. coli. Description: antimicrobial spectrum, agar dilution MIC. As to conditions: Escherichia coli, strain JUHL; BHI agar, 20-24 hours. The data set is classed as cell-based.
Setting [8] is: Haemophilus influenzae, ATCC9006, strain ATCC 9006, read-out: MIC.
[9] abbreviates: Haemophilus influenzae, ATCC9795, strain ATCC 9795, read-out: MIC.
[10] abbreviates: Haemophilus influenzae, ATCC10211, strain ATCC 10211, read-out: MIC.
[11] abbreviates: Haemophilus influenzae, ATCC19418, strain ATCC 19418, read-out: MIC.
Setting [12] is: Haemophilus influenzae, strain 504, read-out: MIC.
Where [13] appears, read: Haemophilus influenzae, strain 519A, read-out: MIC.
[14] abbreviates: Haemophilus influenzae, strain 566A, read-out: MIC.
Setting [15] is: Haemophilus influenzae, strain 588A, read-out: MIC.
Setting [16] is: Haemophilus influenzae, strain 632A, read-out: MIC.
[17] abbreviates: Haemophilus influenzae, strain 667A, read-out: MIC.
[18] abbreviates: Haemophilus influenzae, strain 747C, read-out: MIC.
The mark [19] stands for this setting: Haemophilus influenzae, strain 751, read-out: MIC.
[20] abbreviates: Haemophilus influenzae, strain 1177, read-out: MIC.
Setting [21] is: Haemophilus influenzae, strain 1435, read-out: MIC.
Setting [22] is: Haemophilus influenzae, strain 5036B, read-out: MIC.
[23] abbreviates: Haemophilus influenzae, strain DILL AMP R, read-out: MIC.
[24] abbreviates: Haemophilus influenzae, strain SOL AMP R, read-out: MIC.
Where [25] appears, read: Haemophilus influenzae, strain SPK AMP R, read-out: MIC.

Converted amounts (≈) assume the structure as drawn. Like-named read-outs stand apart in the source and are kept apart here.

Turning to `CC[C@H]1OC(=O)[C@H](C)[C@@H](O[C@H]2C[C@@](C)(OC)[C@@H](O)[C@H](C)O2)[C@H](C)[C@@H](O[C@@H]2O[C@H](C)C[C@H](N(C)C)[C@H]2O)[C@](C)(OC)C[C@@H](C)C(=O)[C@H](C)[C@H]2N(CCCN(C)C)C(=O)O[C@]12C` [Example 12, 11-deoxy-6-O-methyl erythromycin A 11,12-[N-(3-dimethylamino)propyl]cyclic carbamate], the MIC in data set [1] (setting [8]) amounted to 0.5 µg/mL (≈ 0.583 µM); in data set [1] (setting [9]), 0.5 µg/mL (≈ 0.583 µM); in data set [1] (setting [10]), 1 µg/mL (≈ 1.17 µM); in data set [1] (setting [11]), 1 µg/mL (≈ 1.17 µM); in data set [1] (setting [12]) it was 1 µg/mL (≈ 1.17 µM); in data set [1] (setting [13]) it was 0.5 µg/mL (≈ 0.583 µM). In addition, the MIC was 1 µg/mL (≈ 1.17 µM) in data set [1] (setting [14]); 0.5 µg/mL (≈ 0.583 µM) in data set [1] (setting [15]); 0.5 µg/mL (≈ 0.583 µM) in data set [1] (setting [16]); 0.5 µg/mL (≈ 0.583 µM) in data set [1] (setting [17]); 0.5 µg/mL (≈ 0.583 µM) in data set [1] (setting [18]); 0.5 µg/mL (≈ 0.583 µM) in data set [1] (setting [19]). The MIC stood at 0.5 µg/mL (≈ 0.583 µM) in data set [1] (setting [20]); 0.25 µg/mL (≈ 0.291 µM) in data set [1] (setting [21]); 1 µg/mL (≈ 1.17 µM) in data set [1] (setting [22]); 0.5 µg/mL (≈ 0.583 µM) in data set [1] (setting [23]); 0.5 µg/mL (≈ 0.583 µM) in data set [1] (setting [24]); 0.5 µg/mL (≈ 0.583 µM) in data set [1] (setting [25]).

For `CC[C@H]1OC(=O)[C@H](C)[C@@H](O[C@H]2C[C@@](C)(OC)[C@@H](O)[C@H](C)O2)[C@H](C)[C@@H](O[C@@H]2O[C@H](C)C[C@H](N(C)C)[C@H]2O)[C@](C)(OC)C[C@@H](C)C(=O)[C@H](C)[C@H]2N(CCCO)C(=O)O[C@]12C` [Example 15, 11-deoxy-6-O-methyl erythromycin A 11,12-(N-3-hydroxypropyl)cyclic carbamate], the MIC in data set [1] (setting [8]) turned out to be 0.5 µg/mL (≈ 0.602 µM); in data set [1] (setting [9]), 0.5 µg/mL (≈ 0.602 µM); in data set [1] (setting [10]) it was 1 µg/mL (≈ 1.2 µM); in data set [1] (setting [11]) it was 1 µg/mL (≈ 1.2 µM); in data set [1] (setting [12]), 1 µg/mL (≈ 1.2 µM); in data set [1] (setting [13]) it was 0.5 µg/mL (≈ 0.602 µM). For the same compound, the MIC was determined as 1 µg/mL (≈ 1.2 µM) in data set [1] (setting [14]); 1 µg/mL (≈ 1.2 µM) in data set [1] (setting [15]); 1 µg/mL (≈ 1.2 µM) in data set [1] (setting [16]); 1 µg/mL (≈ 1.2 µM) in data set [1] (setting [17]); 0.5 µg/mL (≈ 0.602 µM) in data set [1] (setting [18]); 1 µg/mL (≈ 1.2 µM) in data set [1] (setting [19]). In addition, the MIC in data set [1] (setting [20]) came to 1 µg/mL (≈ 1.2 µM); in data set [1] (setting [21]), 0.5 µg/mL (≈ 0.602 µM); in data set [1] (setting [22]), 1 µg/mL (≈ 1.2 µM); in data set [1] (setting [23]), 0.5 µg/mL (≈ 0.602 µM); in data set [1] (setting [24]) it was 0.5 µg/mL (≈ 0.602 µM); in data set [1] (setting [25]) it was 1 µg/mL (≈ 1.2 µM).

Turning to “11-deoxy-6-O-methyl erythromycin A 11,12-(N-3-hydroxyethyl)cyclic carbamate [Example 16]”, the MIC was 1 µg/mL in data set [1] (strain 504); “.5 µg/mL” in data set [1] (strain 519A); 1 µg/mL in data set [1] (strain 566A); “.5 µg/mL” in data set [1] (strain 588A); 1 µg/mL in data set [1] (strain 632A); 1 µg/mL in data set [1] (strain 667A). Besides, the MIC result is “.5 µg/mL” in data set [1] (strain 747C); 1 µg/mL in data set [1] (strain 751); 1 µg/mL in data set [1] (strain 1177); “.25 µg/mL” in data set [1] (strain 1435); 1 µg/mL in data set [1] (strain 5036B); “.5 µg/mL” in data set [1] (strain ATCC 9006). The MIC result in data set [1] (strain ATCC 9795) was “.5 µg/mL”; in data set [1] (strain ATCC 10211), 1 µg/mL; in data set [1] (strain ATCC 19418) it was “.5 µg/mL”; in data set [1] (strain DILL AMP R) it was “.5 µg/mL”; in data set [1] (strain SOL AMP R), “.5 µg/mL”; in data set [1] (strain SPK AMP R), 1 µg/mL.

For `CC[C@H]1OC(=O)[C@H](C)[C@@H](O[C@H]2C[C@@](C)(OC)[C@@H](O)[C@H](C)O2)[C@H](C)[C@@H](O[C@@H]2O[C@H](C)C[C@H](N(C)C)[C@H]2O)[C@](C)(O)C[C@@H](C)C(=O)[C@H](C)[C@H]2N(C)C(=O)O[C@]12C` [Example 19, 11-deoxyerythromycin A 11,12-(N-methyl)cyclic carbamate], in data set [2], the “Gastrointestinal Motility Index” value was found to be 5.83.

Consider `CC[C@H]1OC(=O)[C@H](C)[C@@H](O[C@H]2C[C@@](C)(OC)[C@@H](O)[C@H](C)O2)[C@H](C)[C@@H](O[C@@H]2O[C@H](C)C[C@H](N(C)C)[C@H]2O)[C@](C)(OC)C[C@@H](C)C(=O)[C@H](C)[C@H]2N(CCCOCCOC)C(=O)O[C@]12C` [Example 1, 11-deoxy-6-O-methylerythromycin A-11,12-(N-methoxyethoxypropyl)cyclic carbamate], for which the MIC in data set [3] (ATCC6538P, strain ATCC 6538P) stood at 0.06 µg/mL (≈ 0.0675 µM); in data set [3] (strain CMX 686B), 0.12 µg/mL (≈ 0.135 µM); in data set [4], 0.06 µg/mL (≈ 0.0675 µM); in data set [5], 0.06 µg/mL (≈ 0.0675 µM); in data set [6] (strain 930), 64 µg/mL (≈ 72 µM); in data set [6] (strain EES61) it was 0.06 µg/mL (≈ 0.0675 µM). Also, the MIC in data set [7] amounted to 16 µg/mL (≈ 18 µM).

Take `CC[C@H]1OC(=O)[C@H](C)[C@@H](O[C@H]2C[C@@](C)(OC)[C@@H](O)[C@H](C)O2)[C@H](C)[C@@H](O[C@@H]2O[C@H](C)C[C@H](N(C)C)[C@H]2O)[C@](C)(O)C[C@@H](C)C(=O)[C@H](C)[C@H]2NC(=O)O[C@@]21C` [Example 18, 11-deoxyerythromycin A 11,12-cyclic carbamate]: the “Gastrointestinal Motility Index” value in data set [2] worked out at 3.60.

These data come from patent US4742049A, “Semisynthetic erythromycin antibiotics” (Abbott Laboratories, priority 1986, dated 1988).
